The results in this text go back to ChEMBL document CHEMBL3638389, “Chemokine receptor antagonists” (2014).

In the assay the target is C-C chemokine receptor type 2 (Homo sapiens, UniProt P41597). Nature of the assay: Radioligand Binding Assay: Radioligand binding assays were performed in CHO cells expressing human CCR2B and Galpha±16 coupling protein. All compounds were dissolved in DMSO and assays run at a final DMSO concentration of 0.5% (v/v). [125I]-labeled human MCP-1 was purchased from PerkinElmer. Unlabelled human MCP-1 was purchased from PeproTech.Compounds were serially diluted in DMSO before diluting into assay buffer (25 mM HEPES, pH 7.4, 5 mM MgCl2, 1 mM CaCl2, 0.5% BSA) with cryo preserved CHO cells expressing human CCR2B and the Galpha±16 coupling protein (30x10^3/well) and [125I]-MCP-1 (50 pM). The reaction was incubated at room temperature for 90 minutes before transferring to GF/C filter membrane (PerkinElmer) pre-treated with 0.3% polyethyleneimine for 2 hours at 4 C. The filter membrane was washed six times with ice cold wash buffer (25 mM HEPES, pH 7.4, 5 mM MgCl2, 1 mM CaCl2, 500 mM NaCl, 0.01% (m/v) azide), dried, and sealed in a RLB sample bag (Agilent Technologies). The format is cell-based.
C-C chemokine receptor type 2, sequence (P41597 whole entry): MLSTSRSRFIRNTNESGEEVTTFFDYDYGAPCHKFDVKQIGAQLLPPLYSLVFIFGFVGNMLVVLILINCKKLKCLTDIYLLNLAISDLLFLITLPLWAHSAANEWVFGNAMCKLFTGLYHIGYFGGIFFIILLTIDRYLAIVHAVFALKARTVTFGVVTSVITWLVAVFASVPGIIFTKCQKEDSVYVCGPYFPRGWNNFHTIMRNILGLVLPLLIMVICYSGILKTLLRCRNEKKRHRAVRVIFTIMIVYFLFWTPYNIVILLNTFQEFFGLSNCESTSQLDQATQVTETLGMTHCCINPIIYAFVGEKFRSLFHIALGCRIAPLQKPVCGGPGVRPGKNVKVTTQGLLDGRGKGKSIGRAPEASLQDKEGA

One may read the IC50 as the concentration needed to halve the response being measured. As to `CO[C@@H]1COCC[C@@H]1N[C@@H]1C[C@H]2CCC[C@@]2(C(=O)N2C[C@@H]3C[C@H]2CN3c2cc(C(F)(F)F)cc(C(F)(F)F)c2)C1`, the IC50 was found to be 1520 nM.
As a reminder, the Ki is the equilibrium dissociation constant of an inhibitor or competing ligand from its target. `CO[C@@H]1COCC[C@@H]1N[C@@H]1C[C@H]2CCC[C@@]2(C(=O)N2C[C@@H]3C[C@H]2CN3c2ccc(Cl)c(C(F)(F)F)c2)C1`: the IC50 is 17.6 nM and the inhibition constant (Ki) was 17 nM.
